In the kinase profiling compilation of Christmann-Franck et al. (2016):
Values joined by “and” are separate entries in the source; they are usually repeats but may differ in a detail not shown here. Identical values can stand only once.

Experiments:
Experiment in all cases: KINOMEscan competition binding
Conditions in all cases: compound 10.0 µM
[1] = molecular target: ACVRL1 (human) (UniProt P37023)
[2] = molecular target: BMPR1A (human) (UniProt P36894)
[3] = molecular target: BRSK2 (human) (UniProt Q8IWQ3)
[4] = molecular target: BTK (human) (UniProt Q06187)
[5] = molecular target: CASK (human) (UniProt O14936)
[6] = molecular target: CDC42BPB (human) (UniProt Q9Y5S2)
[7] = molecular target: CDK3 (human) (UniProt Q00526)
[8] = molecular target: CDK7 (human) (UniProt P50613)
[9] = molecular target: CDK8 (human) (UniProt P49336)
[10] = molecular target: DDR1 (human) (UniProt Q08345)
[11] = molecular target: DYRK2 (human) (UniProt Q92630)
[12] = molecular target: EGFR (human) (UniProt P00533)
[13] = molecular target: EPHA6 (human) (UniProt Q9UF33)
[14] = molecular target: ERN1 (human) (UniProt O75460)
[15] = molecular target: FGFR3 (human) (UniProt P22607)
[16] = molecular target: FYN (human) (UniProt P06241)
[17] = molecular target: GAK (human) (UniProt O14976)
[18] = molecular target: HIPK1 (human) (UniProt Q86Z02)
[19] = molecular target: ITK (human) (UniProt Q08881)
[20] = molecular target: KIT (human) (UniProt P10721)
[21] = molecular target: LTK (human) (UniProt P29376)
[22] = molecular target: LYN (human) (UniProt P07948)
[23] = molecular target: MAP4K3 (human) (UniProt Q8IVH8)
[24] = molecular target: MAPK9 (human) (UniProt P45984)
[25] = molecular target: MAPKAPK2 (human) (UniProt P49137)
[26] = molecular target: MARK2 (human) (UniProt Q7KZI7)
[27] = molecular target: MET (human) (UniProt P08581)
[28] = molecular target: MKNK1 (human) (UniProt Q9BUB5)
[29] = molecular target: NEK7 (human) (UniProt Q8TDX7)
[30] = molecular target: NLK (human) (UniProt Q9UBE8)
[31] = molecular target: NUAK2 (human) (UniProt Q9H093)
[32] = molecular target: PIM1 (human) (UniProt P11309)
[33] = molecular target: PIP4K2B (human) (UniProt P78356)
[34] = molecular target: PRKACA (human) (UniProt P17612)
[35] = molecular target: PRPF4B (human) (UniProt Q13523)
[36] = molecular target: RIOK3 (human) (UniProt O14730)
[37] = molecular target: RPS6KA1 KD1 (human) (UniProt Q15418)
[38] = molecular target: RPS6KB1 (human) (UniProt P23443)
[39] = molecular target: TYK2 JH2 pseudokinase (human) (UniProt P29597)
[40] = molecular target: ULK3 (human) (UniProt Q6PHR2)

Sequence of GAK (human) (O14976 whole entry, looked up): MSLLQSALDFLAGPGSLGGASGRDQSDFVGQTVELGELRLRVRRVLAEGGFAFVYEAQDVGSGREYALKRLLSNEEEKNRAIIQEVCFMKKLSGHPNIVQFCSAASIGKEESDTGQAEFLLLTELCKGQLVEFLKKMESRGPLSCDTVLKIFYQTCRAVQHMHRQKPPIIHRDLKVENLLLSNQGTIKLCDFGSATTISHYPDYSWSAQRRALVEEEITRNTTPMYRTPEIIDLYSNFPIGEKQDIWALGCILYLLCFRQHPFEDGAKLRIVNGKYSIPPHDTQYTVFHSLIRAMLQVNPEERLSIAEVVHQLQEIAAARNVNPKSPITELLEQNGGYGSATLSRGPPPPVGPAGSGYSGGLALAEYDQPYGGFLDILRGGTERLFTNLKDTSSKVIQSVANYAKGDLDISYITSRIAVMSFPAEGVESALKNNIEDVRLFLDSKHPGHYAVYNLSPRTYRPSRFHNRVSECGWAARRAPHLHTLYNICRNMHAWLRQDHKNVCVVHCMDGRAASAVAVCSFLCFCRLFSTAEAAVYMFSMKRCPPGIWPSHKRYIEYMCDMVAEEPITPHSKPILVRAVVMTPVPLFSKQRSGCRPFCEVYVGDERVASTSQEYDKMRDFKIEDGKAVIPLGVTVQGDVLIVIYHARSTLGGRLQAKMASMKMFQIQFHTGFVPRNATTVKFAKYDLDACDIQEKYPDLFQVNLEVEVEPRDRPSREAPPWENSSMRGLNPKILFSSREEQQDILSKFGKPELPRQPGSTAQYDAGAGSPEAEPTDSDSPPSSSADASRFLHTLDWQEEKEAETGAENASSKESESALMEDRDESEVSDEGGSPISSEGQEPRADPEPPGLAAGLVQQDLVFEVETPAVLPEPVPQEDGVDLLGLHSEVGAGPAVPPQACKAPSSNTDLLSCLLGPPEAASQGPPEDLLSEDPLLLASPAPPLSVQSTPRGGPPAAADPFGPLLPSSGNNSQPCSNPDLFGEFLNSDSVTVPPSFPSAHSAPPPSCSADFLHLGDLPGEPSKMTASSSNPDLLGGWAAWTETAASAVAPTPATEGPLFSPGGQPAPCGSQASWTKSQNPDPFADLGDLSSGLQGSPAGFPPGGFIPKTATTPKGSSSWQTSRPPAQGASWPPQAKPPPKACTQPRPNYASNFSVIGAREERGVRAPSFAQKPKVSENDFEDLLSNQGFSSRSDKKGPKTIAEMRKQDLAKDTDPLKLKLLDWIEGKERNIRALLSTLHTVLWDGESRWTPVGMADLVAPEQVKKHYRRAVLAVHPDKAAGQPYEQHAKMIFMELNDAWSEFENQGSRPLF
Sequence of ITK (human) (Q08881 whole entry, looked up): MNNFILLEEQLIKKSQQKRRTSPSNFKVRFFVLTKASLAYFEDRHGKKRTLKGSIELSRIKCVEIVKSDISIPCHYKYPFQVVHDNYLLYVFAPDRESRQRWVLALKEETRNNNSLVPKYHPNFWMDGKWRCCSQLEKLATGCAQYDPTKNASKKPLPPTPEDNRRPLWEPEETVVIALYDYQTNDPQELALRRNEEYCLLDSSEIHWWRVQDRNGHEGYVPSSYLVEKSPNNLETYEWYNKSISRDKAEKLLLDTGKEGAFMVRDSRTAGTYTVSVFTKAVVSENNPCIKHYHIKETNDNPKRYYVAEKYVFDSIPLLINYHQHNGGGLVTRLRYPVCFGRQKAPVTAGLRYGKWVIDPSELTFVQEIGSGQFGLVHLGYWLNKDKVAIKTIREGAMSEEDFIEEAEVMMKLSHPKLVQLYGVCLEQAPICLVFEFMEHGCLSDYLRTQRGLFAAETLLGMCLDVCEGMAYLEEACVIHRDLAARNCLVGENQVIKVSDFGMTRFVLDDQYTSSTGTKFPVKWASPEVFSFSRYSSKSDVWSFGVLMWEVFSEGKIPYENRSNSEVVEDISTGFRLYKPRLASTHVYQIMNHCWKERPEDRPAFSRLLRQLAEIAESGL
Sequence of DYRK2 (human) (Q92630 whole entry, looked up): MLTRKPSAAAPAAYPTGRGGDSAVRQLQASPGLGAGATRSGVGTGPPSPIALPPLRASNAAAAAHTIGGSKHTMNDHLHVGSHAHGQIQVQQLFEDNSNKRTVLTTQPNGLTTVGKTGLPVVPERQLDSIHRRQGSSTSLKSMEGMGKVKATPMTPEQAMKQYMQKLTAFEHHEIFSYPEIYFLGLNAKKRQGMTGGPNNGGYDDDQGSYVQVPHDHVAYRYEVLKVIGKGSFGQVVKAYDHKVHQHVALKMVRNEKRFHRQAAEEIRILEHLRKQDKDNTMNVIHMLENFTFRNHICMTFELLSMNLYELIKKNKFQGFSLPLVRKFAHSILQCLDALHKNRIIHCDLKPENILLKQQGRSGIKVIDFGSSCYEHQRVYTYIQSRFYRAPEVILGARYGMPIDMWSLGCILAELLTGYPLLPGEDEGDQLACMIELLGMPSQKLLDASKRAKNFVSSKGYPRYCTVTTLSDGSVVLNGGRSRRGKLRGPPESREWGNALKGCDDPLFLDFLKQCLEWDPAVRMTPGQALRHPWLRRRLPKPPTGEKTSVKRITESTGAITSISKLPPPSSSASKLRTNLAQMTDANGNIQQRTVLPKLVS
Sequence of KIT (human) (P10721 whole entry, looked up): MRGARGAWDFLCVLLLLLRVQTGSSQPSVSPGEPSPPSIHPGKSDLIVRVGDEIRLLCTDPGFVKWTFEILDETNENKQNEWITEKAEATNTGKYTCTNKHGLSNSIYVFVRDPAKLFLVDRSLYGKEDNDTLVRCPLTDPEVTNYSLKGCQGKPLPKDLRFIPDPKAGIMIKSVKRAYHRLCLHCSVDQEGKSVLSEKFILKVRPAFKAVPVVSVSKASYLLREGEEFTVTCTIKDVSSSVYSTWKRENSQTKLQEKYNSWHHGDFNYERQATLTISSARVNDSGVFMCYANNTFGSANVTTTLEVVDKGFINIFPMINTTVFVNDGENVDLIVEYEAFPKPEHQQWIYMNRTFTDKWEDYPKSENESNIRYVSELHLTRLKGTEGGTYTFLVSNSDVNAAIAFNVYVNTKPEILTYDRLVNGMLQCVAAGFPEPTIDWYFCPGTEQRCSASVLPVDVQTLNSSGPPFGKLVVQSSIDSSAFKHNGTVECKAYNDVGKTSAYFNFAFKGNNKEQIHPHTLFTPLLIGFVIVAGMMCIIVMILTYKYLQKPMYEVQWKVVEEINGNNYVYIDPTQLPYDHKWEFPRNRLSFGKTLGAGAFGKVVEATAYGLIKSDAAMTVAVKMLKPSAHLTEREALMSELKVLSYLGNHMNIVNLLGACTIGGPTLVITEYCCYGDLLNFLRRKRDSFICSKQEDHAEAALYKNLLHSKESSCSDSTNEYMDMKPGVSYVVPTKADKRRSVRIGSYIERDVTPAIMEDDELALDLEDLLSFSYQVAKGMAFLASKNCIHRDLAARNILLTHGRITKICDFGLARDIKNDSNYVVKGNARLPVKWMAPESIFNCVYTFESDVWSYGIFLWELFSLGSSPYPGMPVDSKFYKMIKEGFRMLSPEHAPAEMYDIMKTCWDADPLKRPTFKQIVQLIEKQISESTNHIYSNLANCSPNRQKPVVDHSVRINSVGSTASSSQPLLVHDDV
Sequence of BRSK2 (human) (Q8IWQ3 whole entry, looked up): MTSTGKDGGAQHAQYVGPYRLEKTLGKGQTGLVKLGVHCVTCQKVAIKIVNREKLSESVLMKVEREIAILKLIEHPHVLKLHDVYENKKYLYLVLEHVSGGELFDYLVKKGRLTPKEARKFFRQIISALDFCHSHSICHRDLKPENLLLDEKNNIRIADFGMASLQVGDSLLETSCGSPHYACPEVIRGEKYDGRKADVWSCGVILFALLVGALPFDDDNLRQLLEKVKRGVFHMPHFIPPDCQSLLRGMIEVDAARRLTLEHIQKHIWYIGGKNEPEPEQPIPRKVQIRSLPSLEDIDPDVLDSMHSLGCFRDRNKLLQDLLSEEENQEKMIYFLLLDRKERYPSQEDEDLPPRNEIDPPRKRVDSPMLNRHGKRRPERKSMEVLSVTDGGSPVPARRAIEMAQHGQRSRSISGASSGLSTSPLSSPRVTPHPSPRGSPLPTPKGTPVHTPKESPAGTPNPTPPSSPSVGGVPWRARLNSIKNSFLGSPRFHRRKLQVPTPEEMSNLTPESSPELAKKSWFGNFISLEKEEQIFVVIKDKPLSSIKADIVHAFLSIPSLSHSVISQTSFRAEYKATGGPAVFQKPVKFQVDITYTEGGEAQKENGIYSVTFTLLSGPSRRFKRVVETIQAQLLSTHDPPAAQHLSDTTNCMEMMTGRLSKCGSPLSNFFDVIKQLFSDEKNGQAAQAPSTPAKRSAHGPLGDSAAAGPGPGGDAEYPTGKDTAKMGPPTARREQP
Sequence of CDK8 (human) (P49336 whole entry, looked up): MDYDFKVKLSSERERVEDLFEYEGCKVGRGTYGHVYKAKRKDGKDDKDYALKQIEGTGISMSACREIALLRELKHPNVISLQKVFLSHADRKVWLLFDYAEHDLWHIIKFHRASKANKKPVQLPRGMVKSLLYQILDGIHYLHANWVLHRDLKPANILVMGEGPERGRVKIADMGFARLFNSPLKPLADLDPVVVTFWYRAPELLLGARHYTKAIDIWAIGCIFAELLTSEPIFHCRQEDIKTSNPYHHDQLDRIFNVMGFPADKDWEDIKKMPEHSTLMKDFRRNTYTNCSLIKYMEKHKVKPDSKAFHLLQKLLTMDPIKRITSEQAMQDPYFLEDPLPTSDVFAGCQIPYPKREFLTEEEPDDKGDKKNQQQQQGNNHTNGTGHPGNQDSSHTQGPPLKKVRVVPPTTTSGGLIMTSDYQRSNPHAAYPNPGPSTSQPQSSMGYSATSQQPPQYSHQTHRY
Sequence of PIM1 (human) (P11309 whole entry, looked up): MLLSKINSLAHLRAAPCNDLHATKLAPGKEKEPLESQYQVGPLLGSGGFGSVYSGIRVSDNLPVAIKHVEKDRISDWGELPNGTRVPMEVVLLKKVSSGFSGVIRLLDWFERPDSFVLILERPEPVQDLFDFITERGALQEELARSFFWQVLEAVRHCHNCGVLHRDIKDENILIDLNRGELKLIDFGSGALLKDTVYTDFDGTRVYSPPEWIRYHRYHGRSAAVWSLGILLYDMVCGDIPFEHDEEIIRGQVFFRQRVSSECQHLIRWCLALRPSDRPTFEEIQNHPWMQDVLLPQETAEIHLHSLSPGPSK

Work on `O=c1[nH]c2ccccc2n1C1CCN(Cc2ccc(-c3nc4cc5[nH]cnc5cc4nc3-c3ccccc3)cc2)CC1` yielded a kinase still bound, per cent of control [1] of 100%, a kinase still bound, per cent of control [2] of 77% and a kinase still bound, per cent of control [3] of 88%. For the same compound, the kinase still bound, per cent of control [4] was 100%, the kinase still bound, per cent of control [5] was 79% and the kinase still bound, per cent of control [6] was 83%. It also gave a kinase still bound, per cent of control [7] of 100%, a kinase still bound, per cent of control [8] of 82% and a kinase still bound, per cent of control [9] of 100%. For the same compound, the kinase still bound, per cent of control [10] was 86%, the kinase still bound, per cent of control [11] was 88% and the kinase still bound, per cent of control [12] was 65%. For the same compound, the kinase still bound, per cent of control [13] was 98%, the kinase still bound, per cent of control [14] was 66% and the kinase still bound, per cent of control [15] was 92%. The kinase still bound, per cent of control [16] was 100%, the kinase still bound, per cent of control [17] was 88% and the kinase still bound, per cent of control [18] was 69%. For the same compound, the kinase still bound, per cent of control [19] was 97%, the kinase still bound, per cent of control [20] was 95% and 89% and the kinase still bound, per cent of control [21] was 56%. For the same compound, the kinase still bound, per cent of control [22] was 72%, the kinase still bound, per cent of control [23] was 100% and the kinase still bound, per cent of control [24] was 91%. It also gave a kinase still bound, per cent of control [25] of 100%, a kinase still bound, per cent of control [26] of 83% and a kinase still bound, per cent of control [27] of 39%. It also gave a kinase still bound, per cent of control [28] of 77%, a kinase still bound, per cent of control [29] of 82% and a kinase still bound, per cent of control [30] of 87%. It also gave a kinase still bound, per cent of control [31] of 67%, a kinase still bound, per cent of control [32] of 93% and a kinase still bound, per cent of control [33] of 88%. For the same compound, the kinase still bound, per cent of control [34] was 100%, the kinase still bound, per cent of control [35] was 81% and the kinase still bound, per cent of control [36] was 64%. The kinase still bound, per cent of control [37] was 91%, the kinase still bound, per cent of control [38] was 84% and the kinase still bound, per cent of control [39] was 66%. It also gave a kinase still bound, per cent of control [40] of 80%.

In the case of `C=CC(=O)Nc1ccc(C(=O)c2sc(Nc3ccc(N4CCN(C)CC4)cc3OC)nc2N)cc1`, the kinase still bound, per cent of control [1] is reported as 100%, the kinase still bound, per cent of control [2] is reported as 91% and the kinase still bound, per cent of control [3] is reported as 72%. It also gave a kinase still bound, per cent of control [4] of 94%, a kinase still bound, per cent of control [5] of 100% and a kinase still bound, per cent of control [6] of 100%. It also gave a kinase still bound, per cent of control [7] of 88%, a kinase still bound, per cent of control [8] of 5.8% and a kinase still bound, per cent of control [9] of 100%. For the same compound, the kinase still bound, per cent of control [10] was 100%, the kinase still bound, per cent of control [11] was 4.2% and the kinase still bound, per cent of control [12] was 84%. The kinase still bound, per cent of control [13] was 88%, the kinase still bound, per cent of control [14] was 7.6% and the kinase still bound, per cent of control [15] was 78%. The kinase still bound, per cent of control [16] was 83%, the kinase still bound, per cent of control [17] was 0.8% and the kinase still bound, per cent of control [18] was 15%. It also gave a kinase still bound, per cent of control [19] of 74%, a kinase still bound, per cent of control [20] of 78% and a kinase still bound, per cent of control [21] of 5.6%. The kinase still bound, per cent of control [22] was 100%, the kinase still bound, per cent of control [23] was 60% and the kinase still bound, per cent of control [24] was 7%. It also gave a kinase still bound, per cent of control [25] of 99%, a kinase still bound, per cent of control [26] of 78% and a kinase still bound, per cent of control [27] of 83%. The kinase still bound, per cent of control [28] was 34%, the kinase still bound, per cent of control [29] was 100% and the kinase still bound, per cent of control [30] was 76%. It also gave a kinase still bound, per cent of control [31] of 49%, a kinase still bound, per cent of control [32] of 90% and a kinase still bound, per cent of control [33] of 32%. For the same compound, the kinase still bound, per cent of control [34] was 100%, the kinase still bound, per cent of control [35] was 100% and the kinase still bound, per cent of control [36] was 61%. It also gave a kinase still bound, per cent of control [37] of 24%, a kinase still bound, per cent of control [38] of 100% and a kinase still bound, per cent of control [39] of 66%. It also gave a kinase still bound, per cent of control [40] of 35%.

Work on `COc1cc2ncnc(Nc3cccc(Cl)c3)c2cc1OC` yielded a kinase still bound, per cent of control [1] of 100%, a kinase still bound, per cent of control [2] of 55% and a kinase still bound, per cent of control [3] of 45%. The kinase still bound, per cent of control [4] was 70%, the kinase still bound, per cent of control [5] was 67% and the kinase still bound, per cent of control [6] was 98%. It also gave a kinase still bound, per cent of control [7] of 100%, a kinase still bound, per cent of control [8] of 26% and a kinase still bound, per cent of control [9] of 100%. The kinase still bound, per cent of control [10] was 1.9%, the kinase still bound, per cent of control [11] was 27% and the kinase still bound, per cent of control [12] was 0.05%. For the same compound, the kinase still bound, per cent of control [13] was 11%, the kinase still bound, per cent of control [14] was 41% and the kinase still bound, per cent of control [15] was 99%. The kinase still bound, per cent of control [16] was 81%, the kinase still bound, per cent of control [17] was 0% and the kinase still bound, per cent of control [18] was 48%. It also gave a kinase still bound, per cent of control [19] of 100%, a kinase still bound, per cent of control [21] of 48% and a kinase still bound, per cent of control [22] of 11%. It also gave a kinase still bound, per cent of control [23] of 100%, a kinase still bound, per cent of control [24] of 18% and a kinase still bound, per cent of control [25] of 100%. It also gave a kinase still bound, per cent of control [26] of 74%, a kinase still bound, per cent of control [27] of 62% and a kinase still bound, per cent of control [28] of 4.6%. It also gave a kinase still bound, per cent of control [29] of 88%, a kinase still bound, per cent of control [30] of 43% and a kinase still bound, per cent of control [31] of 49%. It also gave a kinase still bound, per cent of control [32] of 49%, a kinase still bound, per cent of control [33] of 97% and a kinase still bound, per cent of control [34] of 94%. The kinase still bound, per cent of control [35] was 84%, the kinase still bound, per cent of control [36] was 78% and the kinase still bound, per cent of control [37] was 93%. For the same compound, the kinase still bound, per cent of control [38] was 63%, the kinase still bound, per cent of control [39] was 55% and the kinase still bound, per cent of control [40] was 24%.
